These results are taken from ChEMBL document CHEMBL1132041, “Inhibition of human telomerase by PNA-cationic peptide conjugates” (Bioorg Med Chem Lett, 1999).

The target in this test is Telomerase reverse transcriptase (Homo sapiens, UniProt O14746). The experiment in a line: Inhibitory activity against human telomerase.
Telomerase reverse transcriptase, sequence (O14746 whole entry): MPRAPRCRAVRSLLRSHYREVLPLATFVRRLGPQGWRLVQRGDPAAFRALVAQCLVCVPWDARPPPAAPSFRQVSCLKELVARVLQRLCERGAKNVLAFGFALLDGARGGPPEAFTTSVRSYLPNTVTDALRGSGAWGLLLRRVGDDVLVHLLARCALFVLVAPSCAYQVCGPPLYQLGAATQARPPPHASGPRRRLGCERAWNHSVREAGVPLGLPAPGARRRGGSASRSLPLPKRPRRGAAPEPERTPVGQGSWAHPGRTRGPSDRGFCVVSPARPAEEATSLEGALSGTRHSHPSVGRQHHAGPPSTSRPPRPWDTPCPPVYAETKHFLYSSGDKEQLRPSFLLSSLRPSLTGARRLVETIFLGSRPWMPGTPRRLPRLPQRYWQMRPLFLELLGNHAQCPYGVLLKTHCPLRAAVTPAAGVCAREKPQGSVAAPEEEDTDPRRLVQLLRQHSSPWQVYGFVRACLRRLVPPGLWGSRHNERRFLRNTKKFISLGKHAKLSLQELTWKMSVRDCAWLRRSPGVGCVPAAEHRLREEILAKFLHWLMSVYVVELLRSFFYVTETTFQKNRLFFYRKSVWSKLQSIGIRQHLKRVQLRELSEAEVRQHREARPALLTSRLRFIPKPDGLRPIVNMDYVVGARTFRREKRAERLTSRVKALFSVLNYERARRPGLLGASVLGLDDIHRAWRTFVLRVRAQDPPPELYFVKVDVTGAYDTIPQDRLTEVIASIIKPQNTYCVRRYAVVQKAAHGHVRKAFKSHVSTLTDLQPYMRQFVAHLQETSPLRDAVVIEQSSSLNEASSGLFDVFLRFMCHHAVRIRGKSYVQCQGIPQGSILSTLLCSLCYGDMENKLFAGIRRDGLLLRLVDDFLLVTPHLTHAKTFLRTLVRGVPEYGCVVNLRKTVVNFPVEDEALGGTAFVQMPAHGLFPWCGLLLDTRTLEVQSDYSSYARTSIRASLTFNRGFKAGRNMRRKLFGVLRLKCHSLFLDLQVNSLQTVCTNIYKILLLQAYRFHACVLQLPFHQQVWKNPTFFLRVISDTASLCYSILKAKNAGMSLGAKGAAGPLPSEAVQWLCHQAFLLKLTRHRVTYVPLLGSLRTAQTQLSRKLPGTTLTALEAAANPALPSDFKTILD
One may read the IC50 as the concentration needed to halve the response being measured. The low end stands for greater potency in that assay, the high end for weaker potency in that assay. With `Cc1cn([C@H]2C[C@H](OP(=O)(O)OC[C@H]3O[C@@H](n4cnc5c(N)ncnc54)C[C@@H]3OP(=O)(O)OC[C@H]3O[C@@H](N4C=NC5C(=O)N=C(N)N=C54)C[C@@H]3OP(=O)(O)OC[C@H]3O[C@@H](N4C=NC5C(=O)N=C(N)N=C54)C[C@@H]3OP(=O)(O)OC[C@H]3O[C@@H](N4C=NC5C(=O)N=C(NC(=O)O)N=C54)C[C@@H]3O)[C@@H](COP(=O)(O)ON)O2)c(=O)[nH]c1=O` (some centres undefined), the IC50 came out at 1160 nM. `Cc1cn(C2CC(OP(=O)(O)OCC3OC(n4cnc5c(N)ncnc54)CC3OP(=O)(O)OCC3OC(n4cnc5c(=O)[nH]c(N)nc54)CC3OP(=O)(O)OCC3OC(n4cnc5c(=O)[nH]c(N)nc54)CC3OP(=O)(O)OCC3OC(n4cnc5c(=O)[nH]c(N)nc54)CC3O)C(COP(=O)(O)C(=O)[C@H](CS)NC(=O)[C@H](CCCCN)NC(=O)[C@H](CCCCN)NC(=O)[C@H](CCCCN)NC(=O)[C@H](CCCCN)NC(=O)[C@H](CCCCN)NC(=O)[C@H](C)N)O2)c(=O)[nH]c1=O` (some centres undefined): the IC50 amounted to 290 nM. Under `Cc1cn(C2CC(OP(=O)(O)OCC3OC(n4cnc5c(N)ncnc54)CC3OP(=O)(O)OCC3OC(n4cnc5c(=O)[nH]c(N)nc54)CC3OP(=O)(O)OCC3OC(n4cnc5c(=O)[nH]c(N)nc54)CC3OP(=O)(O)OCC3OC(n4cnc5c(=O)[nH]c(N)nc54)CC3O)C(COP(=O)(O)C(=O)[C@H](CS)NC(=O)[C@H](CCCNC(=N)N)NC(=O)[C@H](CCCNC(=N)N)NC(=O)[C@H](CCCNC(=N)N)NC(=O)[C@H](CCCNC(=N)N)NC(=O)[C@H](CCCNC(=N)N)NC(=O)[C@H](C)N)O2)c(=O)[nH]c1=O` (some centres undefined) stands 140 nM; under `Cc1cn(C2CC(OP(=O)(O)OCC3OC(n4cnc5c(N)ncnc54)CC3OP(=O)(O)OCC3OC(n4cnc5c(N)nc(N)nc54)CC3OP(=O)(O)OCC3OC(n4cnc5c(O)nc(N)nc54)CC3OP(=O)(O)OCC3OC(n4cnc5c(O)nc(N)nc54)CC3O)C(COP(=O)(O)C(=O)[C@H](CS)NC(=O)[C@H](CCCN)NC(=O)[C@H](CCCN)NC(=O)[C@H](CCCN)NC(=O)[C@H](CCCN)NC(=O)[C@H](CCCN)NC(=O)[C@H](C)N)O2)c(=O)[nH]c1=O` (some centres undefined), 450 nM.
